Source: PubChem BioAssay (NCI)
Several values for one entry are separate records, joined by “and”; a condition that tells them apart may be missing. Equal values may be shown once.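 The compound was tested at five concentrations on cells cultured in 96-well plates, with a 48-hour exposure period. GI50 is the concentration that inhibits growth by half. TGI marks complete inhibition of growth.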

System: MDA-MB-468 breast
Assay: DTP human tumour cell line panel, 48 h

Row | SMILES | GI50 | TGI
1 | CC(C)=CC/C=C(/C)[C@H]1CC[C@]2(C)[C@@H]1CC[C@@H]1[C@@]3(C)CCCNC(C)(C)[C@@H]3CC[C@]12C | 1710 nM | 3250 nM
2 | Cc1nc2c(-c3cnc(N)nc3)nc(N3CCOCC3)nc2n1C(C)C | 105 nM and 73.4 nM | 647 nM and 398 nM
3 | NC(=O)c1c(NC(=O)c2ccc(C3CCCCC3)cc2)sc2c1CCC(=O)C2 | 297 nM | 1430 nM
4 | O=C(Cc1ccc(/C=C/C(=O)c2ncc[nH]2)cc1)Nc1cc(F)c(F)c(F)c1 | 1110 nM | 4530 nM
5 | N#CC(=C1C=CC(=NO)C=C1)c1ccccc1 | 289 nM | 2860 nM
6 | COc1ccc(/C=C(/C(=O)N2CCN(c3ccccc3)CC2)c2cc(OC)c(OC)c(OC)c2)cc1O | 575 nM | > 100000 nM
7 | CCN(CC)CCC(CNc1ccnc2cc(Cl)ccc12)c1ccc(OC)cc1 (stereo not drawn) | 1990 nM | 4770 nM and 5300 nM
8 | CCCCCCCCCCCCCC1=NC(C)(C)CN1C(C)C | 1520 nM | 2940 nM
9 | CCN(CC)c1ccc2c(c1)OC(N)=C(C#N)C2c1cc(OC)c2c(c1)OCO2 (stereo not drawn) | 32.8 nM | 2970 nM
10 | CCN1CCN(C(c2ccc(C(F)(F)F)cc2)c2ccc3cccnc3c2O)CC1 (stereo not drawn) | 2480 nM | 6480 nM
11 | COc1ccc(CN2C(=O)/C(=C\C(=O)c3ccc(OCCN4CCCCC4)cc3)c3ccccc32)cc1 | 1700 nM | 3680 nM
12 | O=C1NC(=O)C(c2cnc3ccccn23)=C1c1cn2c3c(cc(F)cc13)CN(C(=O)N1CCCCC1)CC2 | 4470 nM | 29900 nM
13 | COc1cc(C2CC(c3cccc(Br)c3)=NN2C(C)=O)cc(OC)c1OC (stereo not drawn) | 215 nM | > 100000 nM
14 | O=C1/C(=C/c2ccc(Br)cc2)COc2ccc(O)c(O)c21 | 1370 nM | 3200 nM
15 | CCN(CC)CCCC(CNc1ccnc2cc(Cl)ccc12)c1ccc(Cl)cc1 (stereo not drawn) | 992 nM and 419 nM | 2550 nM and 1490 nM
16 | Cn1c2ccccc2c2c3c(c4c5cc(Br)ccc5n(C)c4c21)C(=O)N(O)C3=O | 213 nM | 510 nM
17 | COc1ccc(CCOc2cc3c(cc2OC)CCN(C(=O)NCc2cocn2)C3c2ccc(C)cc2C)cc1 (stereo not drawn) | 289 nM | 1300 nM
18 | Cc1ccc(C)c(C2=C(c3cn(C)c4ccccc34)C(=O)NC2=O)c1 | 24300 nM | > 25000 nM
19 | N#Cc1c(NN)n(C2OC(CO)C(O)C2O)c2ncnc(N)c12 (stereo not drawn) | 10.5 nM | 59.4 nM
20 | CCN(CC)CCOc1ccc(-c2nc3cc(Cl)ccc3s2)cc1 | 1160 nM | 2460 nM
21 | CN1CCN(CCOc2ccc(-c3cnc4c(-c5ccccc5F)cnn4c3)cc2)CC1 | 1650 nM | 3360 nM
22 | CC(C)=CCNc1ncnc2c1ncn2C1OC(CO)C(O)C1O (stereo not drawn) | 370 nM | 1780 nM
23 | Clc1nc2ccccc2nc1CI | 2990 nM | 8670 nM
24 | [Cl][Hg][c]1cc(Br)cc(Br)c1 | 1370 nM | 3020 nM
25 | C=C1CC[C@@H]2[C@](C)(COC(C)=O)[C@H](OC(C)=O)CC[C@@]2(C)[C@@H]1CC(Sc1ccccc1)C1=CCOC1=O (stereo partly drawn) | 1410 nM | 3260 nM
26 | CCn1c(-c2nonc2N)nc2c(C#CC(C)(C)O)nc(OC[C@H](N)c3ccccc3)cc21 | 2950 nM | 6730 nM
27 | CCCCCCNC(=O)c1cc(NCc2cc(O)ccc2O)ccc1O | 6530 nM | 28900 nM
28 | O=C(Nc1nc2ccc(C(F)(F)F)cc2s1)c1cc(Cl)ccc1O | 1400 nM | 13700 nM
29 | CCC(C)n1ncn(-c2ccc(N3CCN(c4ccc(OCC5COC(Cn6cncn6)(c6ccc(Cl)cc6Cl)O5)cc4)CC3)cc2)c1=O (stereo not drawn) | 7070 nM | > 100000 nM
